Data taken from PubChem BioAssay AID326 (DTP/NCI, 2004).
“And” between values parts separate entries of the source, which are not always exact repeats. Equal values may be shown once. Toxic doses and inconclusive results are not listed.

Tested on: CD2F1 mice, P388/DHAQ leukemia ip, median survival T/C
Assay: NCI In Vivo Anticancer Drug Screen. Data for tumor model P388 Leukemia resistant to Dihydroxy Anthracenedione; NSC 299195 (intraperitoneal) in CD2F1 (CDF1) mice
Settings: endpoint: median survival time, higher = longer survival
Description: The antitumor activity of compounds was measured in mice bearing transplantable tumors. Survival or tumor size were measured and the results are expressed as the measurement made in the treated group (T) divided by the measurement made in the vehicle treated control group (C). The tumor model used in this assay is P388 Leukemia resistant to Dihydroxy Anthracenedione; NSC 299195 (intraperitoneal) in CD2F1 (CDF1) mice

[1] = dose: 13.0 mg/kg/injection, schedule: Q04DX003 (ip), vehicle: saline
[2] = dose: 60.0 mg/kg/injection, schedule: Q04DX003 (ip), vehicle: saline
[3] = dose: 36.0 mg/kg/injection, schedule: Q04DX003 (ip), vehicle: saline

SMILES: O=c1[nH]cc(F)c(=O)[nH]1
- T/C [1]: 104 % of control
- T/C [2]: 116 % of control and 226 % of control
- T/C (dose: 100.0 mg/kg/injection, schedule: Q04DX003 (ip), vehicle: saline): 109 % of control

SMILES: O=CC(NC(=O)N(CCCl)N=O)C(O)C(O)C(O)CO (stereo unspecified)
- T/C (dose: 7.2 mg/kg/injection, schedule: Q04DX002 (ip), vehicle: saline): 201 % of control
- T/C (dose: 12.0 mg/kg/injection, schedule: Q04DX002 (ip), vehicle: saline): 181 % of control
- T/C (dose: 20.0 mg/kg/injection, schedule: Q04DX002 (ip), vehicle: saline): 412 % of control

SMILES: CO[C@H](C(=O)[C@@H](O)[C@@H](C)O)[C@@H]1Cc2cc3cc(OC4CC(OC5CC(O)C(O)C(C)O5)C(O)C(C)O4)c(C)c(O)c3c(O)c2C(=O)[C@H]1OC1CC(OC2CC(OC3CC(C)(O)C(O)C(C)O3)C(O)C(C)O2)C(O)C(C)O1 (stereo partly specified)
- T/C (dose: 0.22 mg/kg/injection, schedule: Q01DX005 (ip), vehicle: clinical formulation): 112 % of control
- T/C (dose: 0.36 mg/kg/injection, schedule: Q01DX005 (ip), vehicle: clinical formulation): 110 % of control
- T/C (dose: 0.6 mg/kg/injection, schedule: Q01DX005 (ip), vehicle: clinical formulation): 120 % of control
- T/C (dose: 1.0 mg/kg/injection, schedule: Q01DX005 (ip), vehicle: clinical formulation): 123 % of control

SMILES: O=C(O)CCCc1ccc(N(CCCl)CCCl)cc1
- T/C (dose: 2.59 mg/kg/injection, schedule: Q04DX002 (ip), vehicle: saline with Tween-80): 100 % of control
- T/C (dose: 4.32 mg/kg/injection, schedule: Q04DX002 (ip), vehicle: saline with Tween-80): 101 % of control
- T/C (dose: 7.2 mg/kg/injection, schedule: Q04DX002 (ip), vehicle: saline with Tween-80): 100 % of control
- T/C (dose: 12.0 mg/kg/injection, schedule: Q04DX002 (ip), vehicle: saline with Tween-80): 100 % of control
- T/C (dose: 20.0 mg/kg/injection, schedule: Q04DX002 (ip), vehicle: saline with Tween-80): 106 % of control

SMILES: S=P(N1CC1)(N1CC1)N1CC1
- T/C (dose: 3.24 mg/kg/injection, schedule: Q04DX002 (ip), vehicle: saline): 103 % of control
- T/C (dose: 5.4 mg/kg/injection, schedule: Q04DX002 (ip), vehicle: saline): 122 % of control
- T/C (dose: 15.0 mg/kg/injection, schedule: Q04DX002 (ip), vehicle: saline): 183 % of control

SMILES: COc1cc([C@@H]2c3cc4c(cc3[C@@H](OC3OC5COC(C)OC5C(O)C3O)[C@H]3COC(=O)[C@H]23)OCO4)cc(OC)c1O (stereo partly specified)
- T/C (dose: 7.78 mg/kg/injection, schedule: Q04DX003 (ip), vehicle: water): 123 % of control
- T/C (dose: 13.0 mg/kg/injection, schedule: Q04DX003 (ip), vehicle: water): 124 % of control
- T/C (dose: 18.0 mg/kg/injection, schedule: Q04DX003 (ip), vehicle: clinical formulation): 155 % of control
- T/C (dose: 18.0 mg/kg/injection, schedule: Q04DX003 (ip), vehicle: water): 153 % of control
- T/C (dose: 30.0 mg/kg/injection, schedule: Q04DX003 (ip), vehicle: clinical formulation): 162 % of control
- T/C (dose: 30.0 mg/kg/injection, schedule: Q04DX003 (ip), vehicle: water): 105 % of control
- T/C (dose: 50.0 mg/kg/injection, schedule: Q04DX003 (ip), vehicle: clinical formulation): 166 % of control

SMILES: O=NN(CCCl)C(=O)NCCCl
- T/C (dose: 5.4 mg/kg/injection, schedule: Q04DX003 (ip), vehicle: saline + alcohol): 193 % of control
- T/C (dose: 6.48 mg/kg/injection, schedule: Q04DX002 (ip), vehicle: saline + alcohol): 150 % of control
- T/C (dose: 9.0 mg/kg/injection, schedule: Q04DX003 (ip), vehicle: saline + alcohol): 319 % of control
- T/C (dose: 10.8 mg/kg/injection, schedule: Q04DX002 (ip), vehicle: saline + alcohol): 168 % of control and 205 % of control
- T/C (dose: 15.0 mg/kg/injection, schedule: Q04DX003 (ip), vehicle: saline + alcohol): 463 % of control
- T/C (dose: 18.0 mg/kg/injection, schedule: Q04DX002 (ip), vehicle: saline + alcohol): 317 % of control and 412 % of control
- T/C (dose: 25.0 mg/kg/injection, schedule: Q04DX003 (ip), vehicle: saline + alcohol): 463 % of control
- T/C (dose: 30.0 mg/kg/injection, schedule: Q04DX002 (ip), vehicle: saline + alcohol): 412 % of control and 420 % of control

SMILES: CC[C@](O)(C(=O)O)c1cc2n(c(=O)c1CO)Cc1cc3ccccc3nc1-2
- T/C (dose: 6.48 mg/kg/injection, schedule: Q04DX003 (ip), vehicle: saline): 102 % of control and 117 % of control and 121 % of control
- T/C (dose: 7.78 mg/kg/injection, schedule: Q04DX003 (ip), vehicle: saline): 121 % of control
- T/C (dose: 10.8 mg/kg/injection, schedule: Q04DX003 (ip), vehicle: saline): 115 % of control and 120 % of control
- T/C (dose: 18.0 mg/kg/injection, schedule: Q04DX003 (ip), vehicle: saline): 115 % of control
- T/C (dose: 30.0 mg/kg/injection, schedule: Q04DX003 (ip), vehicle: saline): 155 % of control
- T/C [3]: 164 % of control
- T/C (dose: 50.0 mg/kg/injection, schedule: Q04DX003 (ip), vehicle: saline): 180 % of control

SMILES: O=C1c2c(O)ccc(O)c2C(=O)c2c(NCCNCCO)ccc(NCCNCCO)c21
- T/C (dose: 0.65 mg/kg/injection, schedule: Q04DX003 (ip), vehicle: saline): 112 % of control
- T/C (dose: 0.78 mg/kg/injection, schedule: Q04DX003 (ip), vehicle: saline): 119 % of control and 111 % of control
- T/C (dose: 1.08 mg/kg/injection, schedule: Q04DX003 (ip), vehicle: saline): 107 % of control
- T/C (dose: 1.3 mg/kg/injection, schedule: Q04DX002 (ip), vehicle: water): 112 % of control and 114 % of control and 100 % of control
- T/C (dose: 1.62 mg/kg/injection, schedule: Q04DX003 (ip), vehicle: saline): 104 % of control
- T/C (dose: 2.16 mg/kg/injection, schedule: Q04DX002 (ip), vehicle: water): 103 % of control and 120 % of control
- T/C (dose: 2.7 mg/kg/injection, schedule: Q04DX003 (ip), vehicle: saline): 119 % of control
- T/C (dose: 3.6 mg/kg/injection, schedule: Q04DX002 (ip), vehicle: water): 104 % of control and 105 % of control and 97 % of control
- T/C (dose: 4.0 mg/kg/injection, schedule: Q04DX002 (ip), vehicle: water): 100 % of control
- T/C (dose: 4.5 mg/kg/injection, schedule: Q04DX003 (ip), vehicle: saline): 124 % of control
- T/C (dose: 6.0 mg/kg/injection, schedule: Q04DX002 (ip), vehicle: water): 93 % of control and 96 % of control and 97 % of control
- T/C (dose: 6.67 mg/kg/injection, schedule: Q04DX002 (ip), vehicle: water): 106 % of control
- T/C (dose: 7.5 mg/kg/injection, schedule: Q04DX003 (ip), vehicle: saline): 120 % of control
- T/C (dose: 10.0 mg/kg/injection, schedule: Q04DX002 (ip), vehicle: water): 87 % of control and 88 % of control
- T/C (dose: 10.0 mg/kg/injection, schedule: Q04DX003 (ip), vehicle: saline): 109 % of control

SMILES: COc1c(O)c2c(c3cc(C(=O)N4CCc5c4c(O)c(OC)c4[nH]c(C(=O)N6CC7CC78C6=CC(=O)c6[nH]cc(C)c68)cc54)[nH]c13)CCN2C(N)=O (stereo unspecified)
- T/C (dose: 0.05 mg/kg/injection, schedule: Q04DX003 (ip), vehicle: DMSO): 122 % of control
- T/C (dose: 0.09 mg/kg/injection, schedule: Q04DX003 (ip), vehicle: DMSO): 119 % of control
- T/C (dose: 13.0 micrograms/kg/injection, schedule: Q01DX009 (ip), vehicle: DMSO): 100 % of control
- T/C (dose: 21.6 micrograms/kg/injection, schedule: Q01DX009 (ip), vehicle: DMSO): 96 % of control
- T/C (dose: 36.0 micrograms/kg/injection, schedule: Q01DX009 (ip), vehicle: DMSO): 94 % of control
- T/C (dose: 38.9 micrograms/kg/injection, schedule: Q04DX003 (ip), vehicle: DMSO): 114 % of control
- T/C (dose: 60.0 micrograms/kg/injection, schedule: Q01DX009 (ip), vehicle: DMSO): 93 % of control
- T/C (dose: 64.8 micrograms/kg/injection, schedule: Q04DX003 (ip), vehicle: DMSO): 114 % of control
- T/C (dose: 100.0 micrograms/kg/injection, schedule: Q01DX009 (ip), vehicle: DMSO): 94 % of control
- T/C (dose: 108.0 micrograms/kg/injection, schedule: Q04DX003 (ip), vehicle: DMSO): 121 % of control
- T/C (dose: 180.0 micrograms/kg/injection, schedule: Q04DX003 (ip), vehicle: DMSO): 105 % of control
- T/C (dose: 300.0 micrograms/kg/injection, schedule: Q04DX003 (ip), vehicle: DMSO): 102 % of control
- T/C (dose: 300.0 micrograms/kg/injection, schedule: Q04DX003 (ip), vehicle: saline): 100 % of control

SMILES: O=C1c2ccccc2C(=O)c2c(NCCNCCO)ccc(NCCNCCO)c21
- T/C [1]: 109 % of control
- T/C (dose: 21.6 mg/kg/injection, schedule: Q04DX003 (ip), vehicle: saline): 120 % of control
- T/C [3]: 123 % of control
- T/C [2]: 108 % of control

SMILES: CN(Cc1cnc2nc(N)nc(N)c2n1)c1ccc(C(=O)N[C@@H](CCC(=O)O)C(=O)O)cc1
- T/C (dose: 8.64 mg/kg/injection, schedule: Q04DX003 (ip), vehicle: sodium bicarbonate): 161 % of control and 192 % of control
- T/C (dose: 14.4 mg/kg/injection, schedule: Q04DX003 (ip), vehicle: sodium bicarbonate): 168 % of control and 195 % of control
- T/C (dose: 24.0 mg/kg/injection, schedule: Q04DX003 (ip), vehicle: sodium bicarbonate): 108 % of control and 214 % of control
- T/C (dose: 40.0 mg/kg/injection, schedule: Q04DX003 (ip), vehicle: sodium bicarbonate): 92 % of control
